By MIC is commonly meant the smallest concentration in the dilution series that meets the test's criterion for growth inhibition. The low end stands for greater potency, the high end for weaker potency.

Experiment [1] deals with Propionibacteria freudenreichii CSK code 21. Briefly: MIC value determination, 96 wells microtitre plate. The format is cell-based, Propionibacterium freudenreichii. The note with it: strain CSK code 21; SLA medium, 30° C. anaerobically 19-24 hours; average of triplicate. The protocol:
(§1) The dairy Propionibacteria that are comprised in the starter culture according to the invention are preferably characterized by having a MIC value of 5 mg or higher, more preferably 10 mg or higher, even more preferably 25 mg or higher, even more preferably 50 mg or higher, most preferably even 100 mg or higher for lacticin 3147 per litre of growth medium. Herein, the term MIC has its common meaning of “minimal inhibitory concentration” and is the lowest concentration of an antimicrobial (in the present case lacticin 3147) that will inhibit the visible growth of a microorganism after overnight incubation. MIC values for lacticin 3147 or other bacteriocins are typically determined according to the following test: Propionibacterium strains are grown from an individual colony for 2-3 nights (SLA, 30° C., anaerobically) until turbid. 3% inoculum is subbed into fresh SLA medium and incubated for approx. 7 hours until OD600 0.5 is reached. Of the resulting culture, 10^5 cfu/ml is inoculated into 96 wells microtitreplates containing fresh SLA medium comprising lacticin 3147, or other bacteriocin, ranging in concentrations from 100 mg/L to 0.01 mg/L (high concentrations to the left, low concentrations to the right). Growth following incubation at 30° C. anaerobically for 19-24 hours is visually evaluated by inspecting turbidity from left to right. MIC values are determined according to the last well where no visible growth is observed (average of triplicate determinations). The above protocol under appropriate growth conditions can be used to obtain MIC values of other strains, e.g. of Lactoabacilli, Clostridia, etc., against lacticin 3147 or other bacteriocins such as nisin. […] At the same time MIC values against nisin were at least 20 times lower.
(§2) MIC values were determined according to a protocol from UCC & Piper et al., J. Antimicrob. Chemother. 2009, 61(3), 546. The protocol was adapted for 96 wells mictrotitre plate screening. Indicator strains Lb. delbrueckii ssp. lactis, C99 (commercially available ex CSK Food Enrichment CV) and Propionibacterium freudenreichii, C21 (commercially available ex CSK Food Enrichment CV) were used. Growth media were MRS for C99, sodium lactate agar (SLA) for C21.
(§3) MIC value determination of propionibacteria against lacticin was performed according to the following procedure: Propionibacterium strains were grown, from an individual colony, for 2-3 nights (SLA, 30 deg C., anaerobically) until turbid. 3% inoculum was subbed into fresh SLA medium and incubated for approx. 7 hours until OD600 0.5 was reached. Of the resulting culture, 10^5 cfu/ml was inoculated into 96 wells microtitreplates containing fresh SLA medium comprising lacticin 3147 ranging in concentrations from 100 mg/L to 0.01 mg/L (high concentrations to the left, low concentrations to the right). Visually evaluated growth following incubation at 30° C. anaerobically for 19-24 hours, by inspecting turbidity from left to right (i.e. starting at the highest lacticin concentrations). MIC values were determined according to the last well where no visible growth is observed (average of triplicate determinations). MIC values against nisin have be obtained similarly.

Experiment [2] relates to Propionibacteria freudenreichii DPC 4555. Briefly: MIC value determination, 96 wells microtitre plate. The format is cell-based, Propionibacterium freudenreichii. The note with it: strain DPC 4555; SLA medium, 30° C. anaerobically 19-24 hours; average of triplicate. As for the experimental part:
as §1, §2, §3

Experiment [3] relates to Propionibacteria freudenreichii CSK 1205. Briefly: MIC value determination, 96 wells microtitre plate. The format is cell-based, Propionibacterium freudenreichii. The note with it: strain CSK 1205; SLA medium, 30° C. anaerobically 19-24 hours; average of triplicate. As for the experimental part: as §1, §2, §3
Experiment [4] deals with Propionibacteria freudenreichii DPC 2241. Briefly: MIC value determination, 96 wells microtitre plate. The note with it: strain DPC 2241; SLA medium, 30° C. anaerobically 19-24 hours; average of triplicate. The class given is cell-based, Propionibacterium freudenreichii. As for the experimental part: as §1, §2, §3
Experiment [5] deals with Lb. delbrueckii ssp. lactis, C99. Briefly: MIC value determination of Lactobacilli. The format is cell-based, Lactobacillus delbrueckii. As to conditions: results not shown. As for the experimental part:
as §2
MIC value determination of Lactobacilli against lacticin was performed according to the following procedure: Lactobacillus strains were grown, from an individual colony, overnight (MRS, 37 deg C., anaerobically) until turbid. 3% inoculum was subbed into fresh […] medium and incubated for approx. 7 hours until OD600 0.5 was reached. Of the resulting culture, 10^5 cfu/ml was inoculated into 96 wells microtitreplates containing fresh MRS medium comprising lacticin 3147 ranging in concentrations from 100 mg/L to 0.01 mg/L (high concentrations to the left, low concentrations to the right). Visually evaluated growth following incubation at 37° C. anaerobically for 19-24 hours, by inspecting turbidity from left to right (i.e. starting at the highest lacticin concentrations). MIC values were determined according to the last well where no visible growth is observed (average of triplicate determinations).

Experiment [6] has as its system different strains of C. tyrobutyricum. Briefly: MIC value determination against C. tyrobutyricum. The format is cell-based, Clostridium tyrobutyricum. The protocol: The dairy Propionibacteria that are comprised in the starter culture according to the invention are preferably characterized by having a MIC value of 5 mg or higher, more preferably 10 mg or higher, even more preferably 25 mg or higher, even more preferably 50 mg or higher, most preferably even 100 mg or higher for lacticin 3147 per litre of growth medium. Herein, the term MIC has its common meaning of “minimal inhibitory concentration” and is the lowest concentration of an antimicrobial (in the present case lacticin 3147) that will inhibit the visible growth of a microorganism after overnight incubation. MIC values for lacticin 3147 or other bacteriocins are typically determined according to the following test: Propionibacterium strains are grown from an individual colony for 2-3 nights (SLA, 30° C., anaerobically) until turbid. 3% inoculum is subbed into fresh SLA medium and incubated for approx. 7 hours until OD600 0.5 is reached. […] Growth following incubation at 30° C. anaerobically for 19-24 hours is visually evaluated by inspecting turbidity from left to right. MIC values are determined according to the last well where no visible growth is observed (average of triplicate determinations). […]
MIC values were determined according to a protocol from UCC & Piper et al., J. Antimicrob. […]

Take lacticin 3147: the MIC is above 50 µg/mL in experiment [1], 8.3 µg/mL in experiment [2], above 50 µg/mL in experiment [3] and above 50 µg/mL in experiment [4]. The “lacticin 3147 required to inhibit relative to nisin” value in experiment [5] is listed as “Approximately 10 times”. The MIC values in experiment [6] was in the range of 0.4 to 2.5 µg/mL.
For nisin [reference compound], the MIC worked out at 1.25 µg/mL in experiment [1], 0.039 µg/mL in experiment [2], 1.25 µg/mL in experiment [3] and 2.5 µg/mL in experiment [4]. Also, the MIC values in experiment [6] is 0.03 to 0.1 µg/mL.

These data come from patent US10595542B2, “Method for producing Swiss-type cheese” (CSK Food Enrichment B.V., priority 2014, dated 2020).
